Experimental data reported in article PMC4471902, “Block of NMDA receptor channels by endogenous neurosteroids: implications for the agonist induced conformational states of the channel vestibule” (Scientific Reports, 2015).

Columns and labels:
[1] = molecular target: T1, GluN1(T648A)/GluN2B receptors (Rattus norvegicus, UniProt P35439+Q00960, T648A); test: Whole-cell patch-clamp of GluN1(T648A)/GluN2B receptor responses in HEK293 cells; type: cell-based; conditions: for sensitivity of spontaneous currents (absence of glutamate and glycine) to antagonist: 100 μM
T1 construct: expressed in transfected cells; host or cells: HEK293
T1 sequence (Q00960 27-1482, other chains not shown): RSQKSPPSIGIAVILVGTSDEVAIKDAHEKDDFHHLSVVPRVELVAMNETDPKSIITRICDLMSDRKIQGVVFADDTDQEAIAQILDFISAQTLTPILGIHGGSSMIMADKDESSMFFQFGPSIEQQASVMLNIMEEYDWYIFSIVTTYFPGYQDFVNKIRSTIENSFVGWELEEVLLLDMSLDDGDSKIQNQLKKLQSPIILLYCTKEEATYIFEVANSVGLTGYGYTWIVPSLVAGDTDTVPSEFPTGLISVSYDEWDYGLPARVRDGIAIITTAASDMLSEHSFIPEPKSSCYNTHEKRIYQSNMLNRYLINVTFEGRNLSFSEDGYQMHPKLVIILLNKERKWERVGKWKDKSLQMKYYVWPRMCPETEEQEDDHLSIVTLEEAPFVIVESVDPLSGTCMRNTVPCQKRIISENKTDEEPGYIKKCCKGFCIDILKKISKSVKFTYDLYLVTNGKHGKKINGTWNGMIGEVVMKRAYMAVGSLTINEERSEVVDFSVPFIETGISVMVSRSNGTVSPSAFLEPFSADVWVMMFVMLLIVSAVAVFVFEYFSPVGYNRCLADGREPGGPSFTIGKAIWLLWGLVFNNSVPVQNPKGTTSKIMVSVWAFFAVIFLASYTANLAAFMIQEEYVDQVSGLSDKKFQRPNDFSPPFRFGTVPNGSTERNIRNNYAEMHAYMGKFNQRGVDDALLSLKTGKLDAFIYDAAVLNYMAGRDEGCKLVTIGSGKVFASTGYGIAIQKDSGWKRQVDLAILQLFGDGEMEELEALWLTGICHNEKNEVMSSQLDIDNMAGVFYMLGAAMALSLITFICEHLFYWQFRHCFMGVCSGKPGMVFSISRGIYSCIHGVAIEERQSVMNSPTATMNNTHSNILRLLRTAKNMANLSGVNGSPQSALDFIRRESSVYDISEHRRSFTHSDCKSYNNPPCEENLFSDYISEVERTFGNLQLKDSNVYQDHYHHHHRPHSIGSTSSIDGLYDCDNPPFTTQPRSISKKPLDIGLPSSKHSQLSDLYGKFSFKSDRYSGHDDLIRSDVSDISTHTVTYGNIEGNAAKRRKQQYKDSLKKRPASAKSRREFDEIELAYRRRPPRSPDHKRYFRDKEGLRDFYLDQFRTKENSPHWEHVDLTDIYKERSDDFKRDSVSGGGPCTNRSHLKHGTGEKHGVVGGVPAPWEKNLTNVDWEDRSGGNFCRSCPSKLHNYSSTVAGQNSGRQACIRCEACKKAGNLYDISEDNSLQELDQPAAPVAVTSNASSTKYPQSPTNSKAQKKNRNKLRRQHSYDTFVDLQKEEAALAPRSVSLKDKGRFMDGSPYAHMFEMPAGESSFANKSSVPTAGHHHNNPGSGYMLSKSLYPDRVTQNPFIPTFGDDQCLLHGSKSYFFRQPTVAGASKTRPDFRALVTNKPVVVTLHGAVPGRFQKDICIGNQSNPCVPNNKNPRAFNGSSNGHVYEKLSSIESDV
Description: (§1) Human embryonic kidney (HEK293) cells were transfected with expression vectors containing: GluN1–1a (GenBank accession number U08261)[52]; GluN2B (GenBank accession number M91562); GluN1-4a(F484A), (generous gift from Dr. J. J. Woodward)[53] (Smothers & Woodward, 2009); GluN3A (generous gift from Dr. S. A. Lipton)[54] (GenBank accession number NM_138546); GluN1ΔN with deleted 354 amino acids in the NTD (32 to 386); GluN1ΔC with an introduced stop codon in 838 of the CTD GluN2BΔN) with deleted 354 amino acids in the NTD (32 to 386); GluN2BΔC with an introduced stop codon in 844 of the CTD[55]; GluR0 (GenBank accession number Synechocystis PCC 6803) (generous gift from Dr. M. L. Mayer)[18]; and green fluorescent protein (GFP) (pQBI 25, Takara, Tokyo, Japan) genes, as described previously. The Quick-Change site-directed mutagenesis kit (Agilent Technologies, Santa Clara, CA, USA) was used to generate specific point mutations in the M1/M3 region according to the manufacturer’s instructions using manually designed primers purchased from Sigma. Modified DNA plasmids were transformed into competent XL10-Gold E.coli cells, positive clones were selected, and isolated DNA was sequenced. […] All mutations were verified by DNA sequencing (Macrogen, Seoul, Korea or SeQme, Dobris, Czech Republic). The amino acids are numbered according to the full-length protein, including the signal peptide, with the initiating methionine as 1.
(§2) Experiments were performed 24–48 hrs after transfection on cells transfected with GluN1/GluN2B/GFP plasmids. Whole-cell voltage-clamp recordings from HEK293 cells were made with a patch-clamp amplifier (Axopatch 200B; Axon Instruments, Inc., Foster City, CA) after a capacitance and series resistance (<10 MΩ) compensation of 80–90%.
(§3) Patch pipettes (3–5 MΩ) were filled with a solution containing (in mM): 120 gluconic acid, 15 CsCl, 10 BAPTA, 10 HEPES, 3 MgCl2, 1 CaCl2, and 2 ATP-Mg salt (pH-adjusted to 7.2 with CsOH). When GluR0 receptor responses were studied, intracellular solution contained (in mM): 120 gluconic acid, 15 KCl, 10 BAPTA, 10 HEPES, 3 MgCl2, 1 CaCl2, and 2 ATP-Mg salt (pH-adjusted to 7.2 with KOH). Extracellular solution (ECS) contained the following (in mM): 160 NaCl, 2.5 KCl, 10 HEPES, 10 glucose, 0.2 EDTA, and 0.7 CaCl2 (pH-adjusted to 7.3 with NaOH). Glycine (10 μM), an NMDAR co-agonist, was present in the control and test solutions. All (PA-S and PA-A) solutions were made from freshly prepared 20 mM PA-S and 5 mM PA-A stock in dimethyl sulfoxide (DMSO). The final dilution to ECS was made at 50 °C and followed by 1 min sonication (SONOREX DIGITEC DT 100/H, BADELIN electronic, Berlin, Germany). The same concentration of DMSO was added to all extracellular solutions. Drug applications were made with a microprocessor-controlled multibarrel fast-perfusion system. Changes in the glutamate-induced current in HEK293 cells transfected by GluN1/GluN2B subunits were used to estimate the rate of solution exchange around the cell. Standard ECS was switched to the ECS diluted by water (50%) during glutamate application. The osmolarity was adjusted by sucrose to match the standard ECS. Glutamate (1 mM), glycine (10 μM) and pH was maintained constant in both solutions. The solution exchange rate was estimated to be τ = 4.3 ± 0.3 ms (n = 6) for lifted cells and τ = 12.0 ± 0.9 ms (n = 6) for the attached cells.
The IC50 was determined from a single dose of a steroid using the formula [drawing 1] where I is the relative degree of inhibition and [steroid] is the steroid concentration used. Calculations of IC50 were made assuming 100% inhibition at saturating steroid concentration this is valid for both PA-S and PA-A[12][13]. […]

GluN1/GluN2B receptors [2] = molecular target: T2, GluN1/GluN2B receptors (Rattus norvegicus, UniProt P35439+Q00960); design: method as in PMID 22188257; conditions: from −60 to +60 mV; cited from earlier work
T2 construct: expressed in transfected cells; host or cells: HEK293
T2 sequence (Q00960 27-1482, other chains not shown): as above

[3] = molecular target: T3, GluN1(V656A)/GluN2B receptors (Rattus norvegicus, UniProt P35439+Q00960, V656A); test: Whole-cell patch-clamp of GluN1(V656A)/GluN2B receptor responses in HEK293 cells; type: cell-based
T3 construct: expressed in transfected cells; host or cells: HEK293
Description: as §1, §2
(§4) Patch pipettes (3–5 MΩ) were filled with a solution containing (in mM): 120 gluconic acid, 15 CsCl, 10 BAPTA, 10 HEPES, 3 MgCl2, 1 CaCl2, and 2 ATP-Mg salt (pH-adjusted to 7.2 with CsOH). […]

GluN1/GluN2B receptors [4] = molecular target: T2, GluN1/GluN2B receptors; test: Whole-cell patch-clamp of GluN1/GluN2B receptor responses in transfected HEK293 cells; type: cell-based
Description: as §1, §2, §3
Experiments were performed at room temperature (21–25 °C). Data were collected (low-pass filtered at 2 kHz and sampled at 10 kHz) and analyzed using pClamp 10 (Molecular Devices). Unless otherwise mentioned, error bars represent SEM; statistical comparison of groups was performed using Student’s t-test (p < 0.05 was used to determine the significance).
The IC50 was determined from a single dose of a steroid using the formula [drawing 1] where I is the relative degree of inhibition and [steroid] is the steroid concentration used. […]

[5] = molecular target: T4, GluN1(A649T)/GluN2B receptors (Rattus norvegicus, UniProt P35439+Q00960, A649T); test: Whole-cell patch-clamp of GluN1(A649T)/GluN2B receptor responses in HEK293 cells; type: cell-based
T4 construct: expressed in transfected cells; host or cells: HEK293
T4 sequence (Q00960 27-1482, other chains not shown): as above
Description: as §1, §2, §4

[6] = PA-A 20 μM, fit to the Boltzmann equation
[7] = PA-A 20 μM, fit to the Boltzmann equation, read-out: Kd(0 mV)

Compound | sensitivity of spontaneous currents (absence of glutamate and glycine) to antagonist [1] | voltage dependence of inhibition (GluN1/GluN2B receptors [2]) | voltage dependence of steroid inhibition [3] | δ (apparent electrical distance of the binding site) ([3]; fit to the Boltzmann equation) | Kd ([3]; fit to the Boltzmann equation, read-out: Kd(0 mV)) [µM] | voltage dependence of steroid inhibition [1] | δ (apparent electrical distance of the binding site) [1, 6] | Kd [1, 7] [µM] | voltage dependence of steroid inhibition (GluN1/GluN2B receptors [4]; WT GluN1/GluN2B) | δ (apparent electrical distance of the binding site) (GluN1/GluN2B receptors [4]; WT, PA-A 20 μM, fit to the Boltzmann equation) | Kd (GluN1/GluN2B receptors [4]; WT, PA-A 20 μM, fit to the Boltzmann equation, read-out: Kd(0 mV)) [µM] | mode of inhibition (GluN1/GluN2B receptors [4]; dependence on receptor activation by agonists) | voltage dependence of steroid inhibition [5] | δ (apparent electrical distance of the binding site) [5, 6] | Kd [5, 7] [µM]
O=C(O)c1cc(O)c2ccc(Cl)cc2n1 [7-CKA, 7-Cl-kynurenic acid, reference compound] | only moderately sensitive | – | – | – | – | – | – | – | – | – | – | – | – | – | –
N[C@H](CCCP(=O)(O)O)C(=O)O [D-AP5, D-amino-5-phosphonopentanoic acid, reference compound] | only moderately sensitive | – | – | – | – | – | – | – | – | – | – | – | – | – | –
CC(=O)C1CCC2C3CC[C@@H]4C[C@H](OC(=O)C[N+](C)(C)C)CC[C@]4(C)C3CC[C@]12C (stereo partly drawn) [PA-A, 5β-pregnan-20-on 3α-yl-[(2-trimethylammonio)-ethanoate]] | – | voltage independent | intermediate voltage dependence | 0.19 | 193 | strongly voltage dependent | 0.29 | 340 | weak voltage dependence | 0.15 | 335 | use-dependent | intermediate voltage dependence | 0.23 | 745
